From the supplement of paper PMC10307832

Tests used:
Test in all cases: relative viability (nuclei count vs DMSO), 5 days (fraction); higher = more cells survive
UMC-11 = test system: UMC-11
Outline: (§1)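 Medians of duplicate plates are given as relative viability. That measure is the nuclei count in treated wells divided by the count in vehicle wells. Counts were taken on 4× images of lung cancer cell lines in 1536-well plates, 5 days after pin-tool dosing the day after seeding with one drug alone or a fixed anchor-drug dose plus five library-drug doses (not always all listed) in √10 steps.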

HCC-15 = test system: HCC-15
Outline: as §1

NCI-H1623 = test system: NCI-H1623
Outline: as §1

HCC-44 = test system: HCC-44
Outline: as §1

NCI-H1395 = test system: NCI-H1395
Outline: as §1

NCI-H1755 = test system: NCI-H1755
Outline: as §1

NCI-H1648 = test system: NCI-H1648
Outline: as §1

EKVX = test system: EKVX
Outline: as §1

LCLC-103H = test system: LCLC-103H
Outline: as §1

Molecule `Cc1sc2c(c1C)C(c1ccc(Cl)cc1)=N[C@@H](CC(=O)OC(C)(C)C)c1nnc(C)n1-2` [JQ1] + COc1cccc2cc(-c3nc([C@H]4CC[C@H](C(=O)O)CC4)n4ncnc(N)c34)[nH]c12 [OSI-027] (partner 0.5 µM) has a relative viability (UMC-11; first compound 0.04 µM) of 0.396, a relative viability (UMC-11; first compound 0.1265 µM) of 0.399 and a relative viability (UMC-11; first compound 0.4 µM) of 0.258. The relative viability (UMC-11; first compound 1.265 µM) was 0.192, the relative viability (UMC-11; first compound 4 µM) was 0.182 and the relative viability (HCC-15; first compound 0.04 µM) was 0.693. For the same molecule, the relative viability (HCC-15; first compound 0.4 µM) was 0.593, the relative viability (HCC-15; first compound 1.265 µM) was 0.347 and the relative viability (HCC-15; first compound 4 µM) was 0.315. For the same molecule, the relative viability (NCI-H1623; first compound 0.04 µM) was 0.446, the relative viability (NCI-H1623; first compound 0.1265 µM) was 0.433 and the relative viability (NCI-H1623; first compound 0.4 µM) was 0.363. It also gave a relative viability (NCI-H1623; first compound 1.265 µM) of 0.328, a relative viability (NCI-H1623; first compound 4 µM) of 0.291 and a relative viability (HCC-44; first compound 0.04 µM) of 0.477. The relative viability (HCC-44; first compound 0.1265 µM) was 0.293, the relative viability (HCC-44; first compound 0.4 µM) was 0.484 and the relative viability (HCC-44; first compound 1.265 µM) was 0.288. The relative viability (HCC-44; first compound 4 µM) was 0.214, the relative viability (NCI-H1395; first compound 0.04 µM) was 0.626 and the relative viability (NCI-H1395; first compound 0.1265 µM) was 0.489. It also gave a relative viability (NCI-H1395; first compound 0.4 µM) of 0.605, a relative viability (NCI-H1395; first compound 1.265 µM) of 0.488 and a relative viability (NCI-H1395; first compound 4 µM) of 0.477. It also gave a relative viability (NCI-H1755; first compound 0.04 µM) of 0.758, a relative viability (NCI-H1755; first compound 0.1265 µM) of 0.68 and a relative viability (NCI-H1755; first compound 0.4 µM) of 0.668. For the same molecule, the relative viability (NCI-H1755; first compound 1.265 µM) was 0.527, the relative viability (NCI-H1755; first compound 4 µM) was 0.39 and the relative viability (NCI-H1648; first compound 0.04 µM) was 0.285. For the same molecule, the relative viability (NCI-H1648; first compound 0.1265 µM) was 0.287, the relative viability (NCI-H1648; first compound 0.4 µM) was 0.304 and the relative viability (NCI-H1648; first compound 1.265 µM) was 0.206. The relative viability (NCI-H1648; first compound 4 µM) was 0.274, the relative viability (EKVX; first compound 0.04 µM) was 0.698 and the relative viability (EKVX; first compound 0.1265 µM) was 0.587. It also gave a relative viability (EKVX; first compound 0.4 µM) of 0.722, a relative viability (EKVX; first compound 1.265 µM) of 0.571 and a relative viability (EKVX; first compound 4 µM) of 0.488. It also gave a relative viability (LCLC-103H; first compound 0.04 µM) of 0.443, a relative viability (LCLC-103H; first compound 0.1265 µM) of 0.448 and a relative viability (LCLC-103H; first compound 0.4 µM) of 0.367. For the same molecule, the relative viability (LCLC-103H; first compound 1.265 µM) was 0.357 and the relative viability (LCLC-103H; first compound 4 µM) was 0.29.

In the case of `Cc1sc2c(c1C)C(c1ccc(Cl)cc1)=N[C@@H](CC(=O)OC(C)(C)C)c1nnc(C)n1-2` [JQ1] + Cc1cc(Nc2cc(N3CCN(C)CC3)nc(Sc3ccc(NC(=O)C4CC4)cc3)n2)n[nH]1 [Tozasertib] (partner 0.1 µM), the relative viability (UMC-11; first compound 0.04 µM) is reported as 0.214, the relative viability (UMC-11; first compound 0.1265 µM) is reported as 0.192 and the relative viability (UMC-11; first compound 0.4 µM) is reported as 0.173. The relative viability (UMC-11; first compound 1.265 µM) was 0.175, the relative viability (UMC-11; first compound 4 µM) was 0.162 and the relative viability (HCC-15; first compound 0.04 µM) was 0.417. It also gave a relative viability (HCC-15; first compound 0.4 µM) of 0.314, a relative viability (HCC-15; first compound 1.265 µM) of 0.119 and a relative viability (HCC-15; first compound 4 µM) of 0.0896. For the same molecule, the relative viability (NCI-H1623; first compound 0.04 µM) was 0.493, the relative viability (NCI-H1623; first compound 0.1265 µM) was 0.367 and the relative viability (NCI-H1623; first compound 0.4 µM) was 0.404. It also gave a relative viability (NCI-H1623; first compound 1.265 µM) of 0.375, a relative viability (NCI-H1623; first compound 4 µM) of 0.335 and a relative viability (HCC-44; first compound 0.04 µM) of 0.888. It also gave a relative viability (HCC-44; first compound 0.1265 µM) of 0.345, a relative viability (HCC-44; first compound 0.4 µM) of 0.326 and a relative viability (HCC-44; first compound 1.265 µM) of 0.286. The relative viability (HCC-44; first compound 4 µM) was 0.136, the relative viability (NCI-H1395; first compound 0.04 µM) was 0.734 and the relative viability (NCI-H1395; first compound 0.1265 µM) was 0.681. For the same molecule, the relative viability (NCI-H1395; first compound 0.4 µM) was 0.652, the relative viability (NCI-H1395; first compound 1.265 µM) was 0.495 and the relative viability (NCI-H1395; first compound 4 µM) was 0.419. It also gave a relative viability (NCI-H1755; first compound 0.04 µM) of 0.587, a relative viability (NCI-H1755; first compound 0.1265 µM) of 0.584 and a relative viability (NCI-H1755; first compound 0.4 µM) of 0.566. For the same molecule, the relative viability (NCI-H1755; first compound 1.265 µM) was 0.444, the relative viability (NCI-H1755; first compound 4 µM) was 0.411 and the relative viability (NCI-H1648; first compound 0.04 µM) was 0.495. It also gave a relative viability (NCI-H1648; first compound 0.1265 µM) of 0.516, a relative viability (NCI-H1648; first compound 0.4 µM) of 0.243 and a relative viability (NCI-H1648; first compound 1.265 µM) of 0.153. For the same molecule, the relative viability (NCI-H1648; first compound 4 µM) was 0.137, the relative viability (EKVX; first compound 0.04 µM) was 0.317 and the relative viability (EKVX; first compound 0.1265 µM) was 0.361. The relative viability (EKVX; first compound 0.4 µM) was 0.336, the relative viability (EKVX; first compound 1.265 µM) was 0.247 and the relative viability (EKVX; first compound 4 µM) was 0.185. For the same molecule, the relative viability (LCLC-103H; first compound 0.04 µM) was 0.429, the relative viability (LCLC-103H; first compound 0.1265 µM) was 0.384 and the relative viability (LCLC-103H; first compound 0.4 µM) was 0.288. For the same molecule, the relative viability (LCLC-103H; first compound 1.265 µM) was 0.289 and the relative viability (LCLC-103H; first compound 4 µM) was 0.171.
